Measured values published in patent US20260138976A1 (Hoffmann-La Roche Inc., priority 2022, published 2026).

Key:
[1] = biological target: T1, DGKζ (hDGKzeta(1-928)-N-His) (Homo sapiens, UniProt Q13574); experiment: In vitro DGK inhibition assay, DGKzeta ADP Glo (in house); type: biochemical; settings: 2 nM DGKζ, 50 μM ATP, 125 uM DLG in liposomes, 1 hour reaction
T1 construct: hDGKzeta(1-928)-N-His; His (N); made in house; host or cells: Sf21 insect cells (baculovirus)
Method in brief: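 Full-length His-tagged human DGKα (4 nM) or DGKζ (2 nM), expressed in Sf21 cells, phosphorylated 125 µM DLG in PS/PC liposomes with ATP at 25 µM (α) or 50 µM (ζ) for 1 h. ADP was measured by ADP-Glo luminescence. Compounds were tested as 11-point 1:3 series in 2% DMSO.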

primary human T-cells = experiment: IL2 secretion measurements (24 h, CD3-stimulated T-cells, PBS counter screen); type: cell-based; settings: for Emax IL2 (% activation): CD3 condition, normalised to DMSO (neutral) and 20 μM reference compound A1 = 100%; for EC50: Homo sapiens, T-cell, CD3-stimulated primary human T-cells, IL2 secretion, fitted sigmoidal curve, read-out: Tcell IL2 CD3 EC50
Method in brief: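 Expanded primary human T-cells (100k/well) were plated on anti-CD3-coated or PBS-only plates with compound in a 5–6 point dose response (top 20 or 10 μM final, 3.333-fold, 0.2% DMSO). IL-2 in 24 h supernatants was quantified by ProQuantum immunoassay or ELISA. Values were normalized to DMSO and 20 μM reference compound A1 (100%), giving EC50 and Emax.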

T1 sequence (Q13574 whole entry): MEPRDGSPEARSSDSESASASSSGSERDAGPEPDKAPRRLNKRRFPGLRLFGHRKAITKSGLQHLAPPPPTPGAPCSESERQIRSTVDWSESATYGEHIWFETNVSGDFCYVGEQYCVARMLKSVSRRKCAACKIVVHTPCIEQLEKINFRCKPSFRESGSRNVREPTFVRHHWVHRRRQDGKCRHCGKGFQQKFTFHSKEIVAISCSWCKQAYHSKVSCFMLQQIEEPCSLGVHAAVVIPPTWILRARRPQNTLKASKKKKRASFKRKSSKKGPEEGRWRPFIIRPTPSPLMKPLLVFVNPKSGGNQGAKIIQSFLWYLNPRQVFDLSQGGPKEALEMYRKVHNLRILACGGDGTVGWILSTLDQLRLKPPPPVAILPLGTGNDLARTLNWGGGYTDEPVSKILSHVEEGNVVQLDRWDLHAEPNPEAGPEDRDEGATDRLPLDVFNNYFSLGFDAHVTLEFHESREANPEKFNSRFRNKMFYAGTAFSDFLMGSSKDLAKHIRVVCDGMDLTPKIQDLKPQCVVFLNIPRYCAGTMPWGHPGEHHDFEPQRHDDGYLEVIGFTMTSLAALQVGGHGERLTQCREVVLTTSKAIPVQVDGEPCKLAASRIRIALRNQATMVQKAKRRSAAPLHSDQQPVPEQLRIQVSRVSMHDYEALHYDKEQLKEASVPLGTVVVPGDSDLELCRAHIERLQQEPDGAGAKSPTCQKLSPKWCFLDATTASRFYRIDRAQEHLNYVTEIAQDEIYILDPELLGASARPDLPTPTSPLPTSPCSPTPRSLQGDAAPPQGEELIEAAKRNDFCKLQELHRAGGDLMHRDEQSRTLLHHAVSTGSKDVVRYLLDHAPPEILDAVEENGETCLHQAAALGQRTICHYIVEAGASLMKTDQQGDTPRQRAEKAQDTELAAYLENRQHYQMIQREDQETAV

IC50 [1]	Compound	Emax IL2 (% activation) (primary human T-cells)	EC50 (primary human T-cells)
1090 nM	Cc1cc(C)n(-c2ccc(CN3C(=O)[C@@H](N)CS(=O)(=O)c4ccc(-c5nnc(C(C)(C)C)o5)cc43)cc2)n1 [Example 22, (3R)-3-amino-7-(5-tert-butyl-1,3,4-oxadiazol-2-yl)-5-[[4-(3,5-dimethylpyrazol-1-yl)phenyl]methyl]-1,1-dioxo-2,3-dihydro-1λ^6,5-benzothiazepin-4-one]	75 % activation	4580 nM
1440 nM	CC(C)(C)c1nnc(-c2ccc3c(c2)N(Cc2ccc(-c4nnc(C(F)(F)F)o4)cc2)C(=O)[C@@H](N)CS3(=O)=O)o1 [Example 24, (3R)-3-amino-7-(5-tert-butyl-1,3,4-oxadiazol-2-yl)-1,1-dioxo-5-[[4-[5-(trifluoromethyl)-1,3,4-oxadiazol-2-yl]phenyl]methyl]-2,3-dihydro-1λ^6,5-benzothiazepin-4-one]	131 % activation	1060 nM
1740 nM	CC(N)(c1nnc(-c2ccc3c(c2)N(Cc2ccc(-c4noc(C(F)(F)F)n4)cc2)C(=O)[C@@H](N)CS3(=O)=O)o1)C(F)(F)F (stereo partly drawn) [Example 32, (3R)-3-amino-7-[5-(1-amino-2,2,2-trifluoro-1-methyl-ethyl)-1,3,4-oxadiazol-2-yl]-1,1-dioxo-5-[[4-[5-(trifluoromethyl)-1,2,4-oxadiazol-3-yl]phenyl]methyl]-2,3-dihydro-1λ^6,5-benzothiazepin-4-one]	321 % activation	1920 nM
1670 nM	CC(C)(C)C(N)c1nnc(-c2ccc3c(c2)N(Cc2ccc(-c4noc(C(F)(F)F)n4)cc2)C(=O)[C@@H](N)CS3(=O)=O)o1 (stereo partly drawn) [Example 34, (3R)-3-amino-7-[5-(1-amino-2,2-dimethyl-propyl)-1,3,4-oxadiazol-2-yl]-1,1-dioxo-5-[[4-[5-(trifluoromethyl)-1,2,4-oxadiazol-3-yl]phenyl]methyl]-2,3-dihydro-1λ^6,5-benzothiazepin-4-one]	69 % activation	4900 nM
3060 nM	CC(C#N)c1nnc(-c2ccc3c(c2)N(Cc2ccc(-c4noc(C(F)(F)F)n4)cc2)C(=O)[C@@H](N)CS3(=O)=O)o1 (stereo partly drawn) [Example 35, 2-[5-[(3R)-3-amino-1,1,4-trioxo-5-[[4-[5-(trifluoromethyl)-1,2,4-oxadiazol-3-yl]phenyl]methyl]-2,3-dihydro-1λ^6,5-benzothiazepin-7-yl]-1,3,4-oxadiazol-2-yl]propanenitrile]	193 % activation	2150 nM
956 nM	N[C@H]1CS(=O)(=O)c2ccc(-c3nnc(C4(C5CC5)CCCO4)o3)cc2N(Cc2ccc(-c3noc(C(F)(F)F)n3)cc2)C1=O (stereo partly drawn) [Example 36, (3R)-3-amino-7-[5-(2-cyclopropyl-tetrahydrofuran-2-yl)-1,3,4-oxadiazol-2-yl]-1,1-dioxo-5-[[4-[5-(trifluoromethyl)-1,2,4-oxadiazol-3-yl]phenyl]methyl]-2,3-dihydro-1λ^6,5-benzothiazepin-4-one]	223 % activation	616 nM
8830 nM	COC(F)(c1nnc(-c2ccc3c(c2)N(Cc2ccc(-c4noc(C(F)(F)F)n4)cc2)C(=O)[C@@H](N)CS3(=O)=O)o1)C(F)(F)F (stereo partly drawn) [Example 37, (3R)-3-amino-1,1-dioxo-7-[5-(1,2,2,2-tetrafluoro-1-methoxy-ethyl)-1,3,4-oxadiazol-2-yl]-5-[[4-[5-(trifluoromethyl)-1,2,4-oxadiazol-3-yl]phenyl]methyl]-2,3-dihydro-1λ^6,5-benzothiazepin-4-one]	198 % activation	338 nM
1140 nM	CC(C)(C#N)c1nnc(-c2ccc3c(c2)N(Cc2ccc(-c4noc(C(F)(F)F)n4)cc2)C(=O)[C@@H](N)CS3(=O)=O)o1 [Example 38, 2-[5-[(3R)-3-amino-1,1,4-trioxo-5-[[4-[5-(trifluoromethyl)-1,2,4-oxadiazol-3-yl]phenyl]methyl]-2,3-dihydro-1λ^6,5-benzothiazepin-7-yl]-1,3,4-oxadiazol-2-yl]-2-methyl-propanenitrile]	311 % activation	3110 nM
1780 nM	N[C@H]1CS(=O)(=O)c2ccc(-c3nnc(C4(N)CCCCC4)o3)cc2N(Cc2ccc(-c3noc(C(F)(F)F)n3)cc2)C1=O [Example 39, (3R)-3-amino-7-[5-(1-aminocyclohexyl)-1,3,4-oxadiazol-2-yl]-1,1-dioxo-5-[[4-[5-(trifluoromethyl)-1,2,4-oxadiazol-3-yl]phenyl]methyl]-2,3-dihydro-1λ^6,5-benzothiazepin-4-one]	143 % activation	622 nM
3240 nM	N[C@H]1CS(=O)(=O)c2ccc(-c3nnc(C4(N)CCCCC4)o3)cc2N(Cc2ccc(-c3ccc(C(F)(F)F)cn3)cc2)C1=O [Example 41, (3R)-3-amino-7-[5-(1-aminocyclohexyl)-1,3,4-oxadiazol-2-yl]-1,1-dioxo-5-[[4-[5-(trifluoromethyl)-2-pyridyl]phenyl]methyl]-2,3-dihydro-1λ^6,5-benzothiazepin-4-one]	66 % activation	3340 nM
8120 nM	N[C@H]1CS(=O)(=O)c2ccc(-c3nnc(C4(N)CCCCC4)o3)cc2N(Cc2ccc(-c3ccc(C(F)(F)F)cc3)cc2)C1=O [Example 42, (3R)-3-amino-7-[5-(1-aminocyclohexyl)-1,3,4-oxadiazol-2-yl]-1,1-dioxo-5-[[4-[4-(trifluoromethyl)phenyl]phenyl]methyl]-2,3-dihydro-1λ^6,5-benzothiazepin-4-one]	128 % activation	1390 nM
1090 nM	COc1ccc(-c2ccc(CN3C(=O)[C@@H](N)CS(=O)(=O)c4ccc(-c5nnc(C6(N)CCCCC6)o5)cc43)cc2)cc1 [Example 43, (3R)-3-amino-7-[5-(1-aminocyclohexyl)-1,3,4-oxadiazol-2-yl]-5-[[4-(4-methoxyphenyl)phenyl]methyl]-1,1-dioxo-2,3-dihydro-1λ^6,5-benzothiazepin-4-one]	89 % activation	771 nM
851 nM	COc1ccc(-c2ccc(CN3C(=O)[C@@H](N)CS(=O)(=O)c4ccc(-c5nnc(C6(F)CCCN(C)C6)o5)cc43)cc2)cc1 (stereo partly drawn) [Example 50, (3R)-3-amino-7-[5-(3-fluoro-1-methyl-3-piperidyl)-1,3,4-oxadiazol-2-yl]-5-[[4-(4-methoxyphenyl)phenyl]methyl]-1,1-dioxo-2,3-dihydro-1λ^6,5-benzothiazepin-4-one]	119 % activation	3600 nM
1800 nM	CN1CCCC(F)(c2nnc(-c3ccc4c(c3)N(Cc3ccc(-c5ccc(C(F)(F)F)cn5)cc3)C(=O)[C@@H](N)CS4(=O)=O)o2)C1 (stereo partly drawn) [Example 51, (3R)-3-amino-7-[5-(3-fluoro-1-methyl-3-piperidyl)-1,3,4-oxadiazol-2-yl]-1,1-dioxo-5-[[4-[5-(trifluoromethyl)-2-pyridyl]phenyl]methyl]-2,3-dihydro-1λ^6,5-benzothiazepin-4-one]	135 % activation	2490 nM
1380 nM	N[C@H]1CS(=O)(=O)c2ccc(-c3nnc(C4(CO)CCCO4)o3)cc2N(Cc2ccc(-c3noc(C(F)(F)F)n3)cc2)C1=O (stereo partly drawn) [Example 54, (3R)-3-amino-7-[5-[2-(hydroxymethyl)tetrahydrofuran-2-yl]-1,3,4-oxadiazol-2-yl]-1,1-dioxo-5-[[4-[5-(trifluoromethyl)-1,2,4-oxadiazol-3-yl]phenyl]methyl]-2,3-dihydro-1λ^6,5-benzothiazepin-4-one]	126 % activation	3340 nM
228 nM	COC(=O)N1CC(c2nnc(-c3ccc4c(c3)N(Cc3ccc(-c5noc(C(C)(C)C)n5)cc3)C(=O)[C@@H](N)CS4(=O)=O)o2)CC(F)(F)C1 (stereo partly drawn) [Example 56, methyl 3,3-difluoro-5-[5-[(3R)-3-amino-5-[[4-(5-tert-butyl-1,2,4-oxadiazol-3-yl)phenyl]methyl]-1,1,4-trioxo-2,3-dihydro-1λ^6,5-benzothiazepin-7-yl]-1,3,4-oxadiazol-2-yl]piperidine-1-carboxylate]	109 % activation	940 nM
2340 nM	COC(=O)N1CC(c2nnc(-c3ccc4c(c3)N(Cc3ccc(-c5ccc(C(F)(F)F)cc5)nc3)C(=O)[C@@H](N)CS4(=O)=O)o2)CC(F)(F)C1 (stereo partly drawn) [Example 57, methyl 3,3-difluoro-5-[5-[(3R)-3-amino-1,1,4-trioxo-5-[[6-[4-(trifluoromethyl)phenyl]-3-pyridyl]methyl]-2,3-dihydro-1λ^6,5-benzothiazepin-7-yl]-1,3,4-oxadiazol-2-yl]piperidine-1-carboxylate]	100 % activation	652 nM

Compound	IC50 [1]	Emax IL2 (% activation) (primary human T-cells)	EC50 (primary human T-cells)
COC(=O)N1CC2CC(c3nnc(-c4ccc5c(c4)N(Cc4ccc(-c6ccc(C(F)(F)F)cc6)nc4)C(=O)[C@@H](N)CS5(=O)=O)o3)(C2)C1 [Example 58, methyl 1-[5-[(3R)-3-amino-1,1,4-trioxo-5-[[6-[4-(trifluoromethyl)phenyl]-3-pyridyl]methyl]-2,3-dihydro-1λ^6,5-benzothiazepin-7-yl]-1,3,4-oxadiazol-2-yl]-3-azabicyclo[3.1.1]heptane-3-carboxylate]	2140 nM	505 % activation	4710 nM
